Values of other authors in patent publication US20190000898A1, “COMBINING ADENOVIRUS AND CHEMOTHERAPEUTIC AGENTS FOR TREATING CANCER” (priority 2016, published 2019).

Experiments:
unresectable MPM = details: patients; p=0.02
[1] = system: syngeneic pancreatic tumors; details: immune-competent hamsters

SMILES | median survival (unresectable MPM) [months] | antitumor efficacy (tumor growth) [1]
N.N.[Cl][Pt][Cl] [Cisplatin] | 9 | –
O=P1(N(CCCl)CCCl)NCCCO1 (centres unmarked) [cyclophosphamide] | – | did not result in significant reduction of tumor growth
